From PubChem BioAssay AID1259407 (Chemical Carcinogenesis Research Information System (CCRIS), 2018)
Active and inactive are the calls of the source. No rule for the calls is given here.

Test system: CCRIS mutagenicity, Ames/micronucleus/aberration tests
Test: CCRIS mutagenicity studies
[1] = Test System: MOUSE LYMPHOMA, Strain/Indicator: L5178Y (TK+/TK-), Metabolic Activation: RAT, LIVER, S-9, AROCLOR 1254, Method: SUSPENSION/PLATE
[2] = Test System: Mouse lymphoma, Strain/Indicator: L5178Y (tk+/tk-), Metabolic Activation: None, Method: Suspension/plate

For `CCCCNN`, the mutagenic call (Test System: AMES SALMONELLA TYPHIMURIUM, Strain/Indicator: TA100, Metabolic Activation: NONE, Method: PREINCUBATION (11 HR GROWTH PERIOD FOR BACTERIA)) was “active; positive”, the mutagenic call (Test System: AMES SALMONELLA TYPHIMURIUM, Strain/Indicator: TA100, Metabolic Activation: RAT, LIVER, S-9, PCB, Method: PREINCUBATION (11 HR GROWTH PERIOD FOR BACTERIA)) was “inactive; negative” and the mutagenic call (Test System: AMES SALMONELLA TYPHIMURIUM, Strain/Indicator: TA102, Metabolic Activation: NONE, Method: PREINCUBATION (5 OR 7 HR GROWTH PERIOD FOR BACTERIA)) was “active; positive”. For the same molecule, the mutagenic call (Test System: AMES SALMONELLA TYPHIMURIUM, Strain/Indicator: TA102, Metabolic Activation: RAT, LIVER, S-9, PCB, Method: PREINCUBATION (5 HR GROWTH PERIOD FOR BACTERIA)) was “inactive; negative” and the mutagenic call (Test System: AMES SALMONELLA TYPHIMURIUM, Strain/Indicator: TA102, Metabolic Activation: RAT, LIVER, S-9, PCB, Method: PREINCUBATION (7 HR GROWTH PERIOD FOR BACTERIA)) was “active; positive”.

In the case of `CCN(C)N=O`, the mutagenic call (Test System: AMES SALMONELLA TYPHIMURIUM, Strain/Indicator: TA100, Metabolic Activation: HAMSTER, LIVER, S-9, Method: PREINCUBATION) is reported as “active; positive”, the mutagenic call (Test System: AMES SALMONELLA TYPHIMURIUM, Strain/Indicator: TA100, Metabolic Activation: HUMAN, LIVER, S-9, Method: PREINCUBATION) is reported as “inactive; negative” and the mutagenic call (Test System: AMES SALMONELLA TYPHIMURIUM, Strain/Indicator: TA100, Metabolic Activation: PIG, LIVER, S-9, Method: PREINCUBATION) is reported as “inactive; negative”. For the same molecule, the mutagenic call (Test System: AMES SALMONELLA TYPHIMURIUM, Strain/Indicator: TA100, Metabolic Activation: RAT, LIVER, S-9, Method: PREINCUBATION) was “inactive; negative”.

With `C=C1N(C)c2ccccc2C1(C)C` the mutagenic call (Test System: MOUSE LYMPHOMA, Strain/Indicator: L5178Y (TK+/TK-), Metabolic Activation: NONE, Method: SUSPENSION/PLATE) was “inactive; negative. reevaluation of results: negative”, the mutagenic call [1] was “active; positive. reevaluation of results: positive” and the mutagenic call [2] was “inactive; negative”. For the same molecule, the mutagenic call (Test System: Mouse lymphoma, Strain/Indicator: L5178Y (tk+/tk-), Metabolic Activation: Rat, Liver, S-9, Aroclor 1254, Method: Suspension/plate) was “active; positive”.

With `O=[N+]([O-])c1ccc(/C=C/c2ccc([N+](=O)[O-])cc2S(=O)(=O)O)c(S(=O)(=O)O)c1` the mutagenic call (Test System: AMES SALMONELLA TYPHIMURIUM, Strain/Indicator: TA98, Metabolic Activation: NONE, Method: PREINCUBATION) was “inactive; negative”, the mutagenic call (Test System: AMES SALMONELLA TYPHIMURIUM, Strain/Indicator: TA98, Metabolic Activation: RAT LIVER S-9, PHENOBARBITAL AND BETA-NAPHTHOFLAVONE, Method: PREINCUBATION) was “inactive; negative” and the mutagenic call (Test System: AMES SALMONELLA TYPHIMURIUM, Strain/Indicator: TA100, Metabolic Activation: NONE, Method: PREINCUBATION) was “inactive; negative”. For the same molecule, the mutagenic call (Test System: AMES SALMONELLA TYPHIMURIUM, Strain/Indicator: TA100, Metabolic Activation: RAT LIVER S-9, PHENOBARBITAL AND BETA-NAPHTHOFLAVONE, Method: PREINCUBATION) was “inactive; negative”, the mutagenic call (Test System: AMES SALMONELLA TYPHIMURIUM, Strain/Indicator: TA1535, Metabolic Activation: NONE, Method: PREINCUBATION) was “inactive; negative” and the mutagenic call (Test System: AMES SALMONELLA TYPHIMURIUM, Strain/Indicator: TA1535, Metabolic Activation: RAT LIVER S-9, PHENOBARBITAL AND BETA-NAPHTHOFLAVONE, Method: PREINCUBATION) was “inactive; negative”. The mutagenic call (Test System: AMES SALMONELLA TYPHIMURIUM, Strain/Indicator: TA1537, Metabolic Activation: NONE, Method: PREINCUBATION) was “inactive; negative”, the mutagenic call (Test System: AMES SALMONELLA TYPHIMURIUM, Strain/Indicator: TA1537, Metabolic Activation: RAT LIVER S-9, PHENOBARBITAL AND BETA-NAPHTHOFLAVONE, Method: PREINCUBATION) was “inactive; negative” and the mutagenic call (Test System: E.COLI, Strain/Indicator: WP2UVRA/PKM101, Metabolic Activation: NONE, Method: PREINCUBATION) was “inactive; negative”. For the same molecule, the mutagenic call (Test System: E.COLI, Strain/Indicator: WP2UVRA/PKM101, Metabolic Activation: RAT LIVER S-9, PHENOBARBITAL AND BETA-NAPHTHOFLAVONE, Method: PREINCUBATION) was “inactive; negative”.

In the case of `N#Cc1cc(Br)c(O)c(Br)c1`, the mutagenic call (Test System: AMES SALMONELLA TYPHIMURIUM, Strain/Indicator: TA98, Metabolic Activation: HAMSTER, LIVER, S-9, AROCLOR 1254 (10%), Method: STANDARD PLATE) is reported as “inactive; negative”, the mutagenic call (Test System: AMES SALMONELLA TYPHIMURIUM, Strain/Indicator: TA98, Metabolic Activation: NONE, Method: STANDARD PLATE) is reported as “inactive; negative” and the mutagenic call (Test System: AMES SALMONELLA TYPHIMURIUM, Strain/Indicator: TA98, Metabolic Activation: RAT, LIVER, S-9, AROCLOR 1254 (10%), Method: STANDARD PLATE) is reported as “inactive; negative”. The mutagenic call (Test System: AMES SALMONELLA TYPHIMURIUM, Strain/Indicator: TA100, Metabolic Activation: HAMSTER, LIVER, S-9, AROCLOR 1254 (10%), Method: STANDARD PLATE) was “inactive; negative”, the mutagenic call (Test System: AMES SALMONELLA TYPHIMURIUM, Strain/Indicator: TA100, Metabolic Activation: NONE, Method: STANDARD PLATE) was “inactive; negative” and the mutagenic call (Test System: AMES SALMONELLA TYPHIMURIUM, Strain/Indicator: TA100, Metabolic Activation: RAT, LIVER, S-9, AROCLOR 1254 (10%), Method: STANDARD PLATE) was “inactive; negative”. For the same molecule, the mutagenic call (Test System: AMES SALMONELLA TYPHIMURIUM, Strain/Indicator: TA1535, Metabolic Activation: HAMSTER, LIVER, S-9, AROCLOR 1254 (10%), Method: STANDARD PLATE) was “inactive; negative”, the mutagenic call (Test System: AMES SALMONELLA TYPHIMURIUM, Strain/Indicator: TA1535, Metabolic Activation: NONE, Method: STANDARD PLATE) was “inactive; negative” and the mutagenic call (Test System: AMES SALMONELLA TYPHIMURIUM, Strain/Indicator: TA1535, Metabolic Activation: RAT, LIVER, S-9, AROCLOR 1254 (10%), Method: STANDARD PLATE) was “inactive; negative”. The mutagenic call (Test System: AMES SALMONELLA TYPHIMURIUM, Strain/Indicator: TA1537, Metabolic Activation: HAMSTER, LIVER, S-9, AROCLOR 1254 (10%), Method: STANDARD PLATE) was “inactive; negative”, the mutagenic call (Test System: AMES SALMONELLA TYPHIMURIUM, Strain/Indicator: TA1537, Metabolic Activation: NONE, Method: STANDARD PLATE) was “inactive; negative” and the mutagenic call (Test System: AMES SALMONELLA TYPHIMURIUM, Strain/Indicator: TA1537, Metabolic Activation: RAT, LIVER, S-9, AROCLOR 1254 (10%), Method: STANDARD PLATE) was “inactive; negative”. For the same molecule, the mutagenic call (Test System: AMES SALMONELLA TYPHIMURIUM, Strain/Indicator: TA1538, Metabolic Activation: HAMSTER, LIVER, S-9, AROCLOR 1254 (10%), Method: STANDARD PLATE) was “inactive; negative”, the mutagenic call (Test System: AMES SALMONELLA TYPHIMURIUM, Strain/Indicator: TA1538, Metabolic Activation: NONE, Method: STANDARD PLATE) was “inactive; negative” and the mutagenic call (Test System: AMES SALMONELLA TYPHIMURIUM, Strain/Indicator: TA1538, Metabolic Activation: RAT, LIVER, S-9, AROCLOR 1254 (10%), Method: STANDARD PLATE) was “inactive; negative”. For the same molecule, the mutagenic call [1] was “active; positive. reevaluation of results: equivocal” and the mutagenic call [2] was “inactive; negative”.
